Test results reported in patent US20260035364A1, “BICYCLIC TETRAHYDROTHIAZEPINE DERIVATIVES” (Hoffmann-La Roche Inc., priority 2022, published 2026).
Where two headings read alike, the source gives them in different places.

Tests used:
primary human T-cells = assay: IL2 secretion measurements in CD3-stimulated T-cells; format: cell-based; settings: CD3 condition; for Emax / Emax IL2 (% activation): IL2 after 24 hours, 20 μM reference compound A1 = 100%; for Emax: read-out: Emax IL2 (% activation); for EC50: IL2 secretion after 24 hours, read-out: Tcell IL2 CD3 EC50
Summary of the method: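 Expanded primary human T-cells (100k/well) were stimulated on CD3 antibody-coated or PBS-coated plates with compounds in 5–6 point dose response from 20 or 10 μM top final (dilution factor 3.333, 0.2% DMSO final). IL2 in 24 h supernatants was measured by ProQuantum immunoassay or ELISA, normalized to DMSO (0%) and 20 μM reference compound A1 (100%) to fit EC50 and Emax.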

DGKzeta = DGKzeta (Homo sapiens, UniProt Q13574); assay: In vitro DGK inhibition assay (ADP-Glo, liposomes), DGKzeta; format: biochemical; parameters: hDGKzeta(1-928)-N-His; His (N); made in house; host or cells: Sf21 insect cells (baculovirus); settings: 2 nM DGK ζ, 50 μM ATP, 125 uM DLG in liposomes, 1 hour reaction
Chain of DGKzeta (Q13574 whole entry): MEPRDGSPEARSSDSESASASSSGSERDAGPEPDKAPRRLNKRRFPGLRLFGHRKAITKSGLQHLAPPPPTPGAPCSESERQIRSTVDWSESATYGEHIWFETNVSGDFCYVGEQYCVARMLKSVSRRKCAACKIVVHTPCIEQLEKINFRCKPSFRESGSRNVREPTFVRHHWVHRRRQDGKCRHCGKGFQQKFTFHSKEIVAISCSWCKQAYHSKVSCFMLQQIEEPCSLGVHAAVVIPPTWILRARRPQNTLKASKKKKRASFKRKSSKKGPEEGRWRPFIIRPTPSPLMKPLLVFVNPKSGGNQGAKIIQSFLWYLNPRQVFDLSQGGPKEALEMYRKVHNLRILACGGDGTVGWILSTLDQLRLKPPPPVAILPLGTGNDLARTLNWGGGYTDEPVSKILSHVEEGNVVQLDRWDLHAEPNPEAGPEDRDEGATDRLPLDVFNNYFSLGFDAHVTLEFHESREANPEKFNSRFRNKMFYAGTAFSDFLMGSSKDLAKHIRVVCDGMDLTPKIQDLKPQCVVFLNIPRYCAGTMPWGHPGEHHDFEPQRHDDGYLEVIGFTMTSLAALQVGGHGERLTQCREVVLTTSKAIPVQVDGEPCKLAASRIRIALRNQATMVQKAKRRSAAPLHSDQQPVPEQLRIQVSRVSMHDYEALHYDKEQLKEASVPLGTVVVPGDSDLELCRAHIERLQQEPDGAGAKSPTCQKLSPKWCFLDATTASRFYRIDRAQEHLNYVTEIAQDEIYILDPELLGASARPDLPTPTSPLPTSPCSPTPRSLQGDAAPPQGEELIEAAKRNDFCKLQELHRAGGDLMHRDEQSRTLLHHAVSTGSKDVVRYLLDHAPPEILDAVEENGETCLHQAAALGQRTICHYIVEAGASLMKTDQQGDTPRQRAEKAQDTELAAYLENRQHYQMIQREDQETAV
Summary of the method: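 DGKζ (2 nM) phosphorylated DLG presented in DLG/PS/PC liposomes (final DLG 125 μM) with 50 μM ATP for 1 hour. ADP formed was read by ADP-Glo luminescence. Compounds were tested as 11-point 1:3 dose responses in 2% final DMSO.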

DGKalpha = DGKalpha (Homo sapiens, UniProt P23743); assay: In vitro DGK inhibition assay (ADP-Glo, liposomes), DGKalpha; format: biochemical; parameters: hDGKalpha(1-735)-N-His; His (N); made in house; host or cells: Sf21 insect cells (baculovirus); settings: 4 nM DGK α, 25 μM ATP, 125 uM DLG in liposomes, 1 hour reaction
Chain of DGKalpha (P23743 whole entry): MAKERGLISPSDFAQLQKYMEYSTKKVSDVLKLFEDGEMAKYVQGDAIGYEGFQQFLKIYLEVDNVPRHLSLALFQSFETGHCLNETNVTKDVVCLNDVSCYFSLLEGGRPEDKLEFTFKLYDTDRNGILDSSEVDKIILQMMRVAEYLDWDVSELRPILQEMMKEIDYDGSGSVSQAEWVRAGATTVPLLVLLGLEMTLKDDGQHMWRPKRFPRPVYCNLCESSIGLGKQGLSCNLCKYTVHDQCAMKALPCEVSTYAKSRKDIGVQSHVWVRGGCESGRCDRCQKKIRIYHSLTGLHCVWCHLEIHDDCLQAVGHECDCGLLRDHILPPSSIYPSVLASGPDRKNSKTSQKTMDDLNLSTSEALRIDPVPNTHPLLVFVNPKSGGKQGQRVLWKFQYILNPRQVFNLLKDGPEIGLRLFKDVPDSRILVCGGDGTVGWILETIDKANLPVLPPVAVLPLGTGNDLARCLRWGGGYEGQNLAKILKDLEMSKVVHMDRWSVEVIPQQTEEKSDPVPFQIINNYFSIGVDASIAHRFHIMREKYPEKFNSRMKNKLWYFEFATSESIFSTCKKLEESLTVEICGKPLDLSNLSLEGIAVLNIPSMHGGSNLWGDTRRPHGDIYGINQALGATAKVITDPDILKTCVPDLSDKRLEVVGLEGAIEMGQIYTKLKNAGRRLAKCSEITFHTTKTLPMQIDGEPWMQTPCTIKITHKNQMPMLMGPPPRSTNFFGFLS
Summary of the method: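 Full-length human DGKα (4 nM) or DGKζ (2 nM) from Sf21 cells, with DLG substrate at 125 uM in PS/PC liposomes and ATP at 25 μM (α) or 50 μM (ζ); 1 h reaction. ADP formed read by ADP-Glo luminescence; compounds 11-point, 1:3 dilutions from 10 mM, 2% DMSO final.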

Structure (SMILES)	Emax (primary human T-cells; Homo sapiens, T-cell, 24 h) [%]	EC50 (primary human T-cells; Homo sapiens, T-cell, 24 h) [µM]	IC50 (DGKzeta) [µM]	IC50 (DGKalpha) [µM]	Emax IL2 (% activation) (primary human T-cells) [%]	EC50 (primary human T-cells) [µM]
CC(C)(c1nc(-c2cc3c(cc2F)S(=O)(=O)C[C@H](N)C(=O)N3Cc2ccc(Oc3ccccc3)nc2)no1)S(C)(=O)=O [Example 48, (3R)-3-amino-8-fluoro-7-[5-(1-methyl-1l-methylsulfonyl-ethyl)-1,2,4-oxadiazol-3-yl]-1,1-dioxo-5-[(6-phenoxy-3-pyridyl)methyl]-2,3-dihydro-1 λ6,5-benzothiazepin-4-one]	165	1.05	0.63	1.96	–	–
COc1ccc(-c2ccc(CN3C(=O)[C@@H](N)CS(=O)(=O)c4ccc(-c5nnc(C(C)(C)S(C)(=O)=O)o5)cc43)cc2)c(C)c1 [Example 49, (3R)-3-amino-5-[[4-(4-methoxy-2-methyl-phenyl)phenyl]methyl]-7-[5-(1-methyl-1-methylsulfonyl-ethyl)-1,3,4-oxadiazol-2-yl]-1,1-dioxo-2,3-dihydro-1λ6,5-benzothiazepin-4-one]	34	> 10	1.46	11.1	–	–
COc1ccc(-c2ccc(CN3C(=O)[C@@H](N)CS(=O)(=O)c4cc(F)c(-c5noc(C(C)(C)S(C)(=O)=O)n5)cc43)cc2)cc1 [Example 50, (3R)-3-amino-8-fluoro-5-[[4-(4-methoxyphenyl)phenyl]methyl]-7-[5-(1-methyl-1-methylsulfonyl-ethyl)-1,2,4-oxadiazol-3-yl]-1,1-dioxo-2,3-dihydro-1λ6,5-benzothiazepin-4-one]	99	0.216	0.377	2.11	–	–
CC(C)(c1nc(-c2cc3c(cc2F)[S+]([O-])C[C@H](N)C(=O)N3Cc2ccc(Oc3ccccc3)cc2)no1)S(C)(=O)=O (stereo partly drawn) [Example 51, (3R)-3-amino-8-fluoro-7-[5-(1-methyl-1-methylsulfonyl-ethyl)-1,2,4-oxadiazol-3-yl]-1-oxo-5-[(4-phenoxyphenyl)methyl]-2,3-dihydro-1λ4,5-benzothiazepin-4-one]	–	0.897	0.371	2.29	101	–
CC(C)(c1nc(-c2cc3c(cc2F)[S+]([O-])C[C@H](N)C(=O)N3Cc2ccc(Oc3ccccc3)cc2)no1)S(C)(=O)=O (stereo partly drawn) [Example 52, (3R)-3-amino-8-fluoro-7-[5-(1-methyl-1-methylsulfonyl-ethyl)-1,2,4-oxadiazol-3-yl]-1-oxo-5-[(4-phenoxyphenyl)methyl]-2,3-dihydro-1λ4,5-benzothiazepin-4-one]	–	–	0.419	1.55	253	1.17
CS(=O)(=O)Cn1nnc(-c2cc3c(cc2F)S(=O)(=O)C[C@H](N)C(=O)N3Cc2ccc(Oc3ccccc3)cc2)n1 [Example 54, (3R)-3-amino-8-fluoro-7-[2-(methylsulfonylmethyl)tetrazol-5-yl]-1,1-dioxo-5-[(4-phenoxyphenyl)methyl]-2,3-dihydro-1λ6,5-benzothiazepin-4-one]	132	1.04	0.603	1.17	–	–
CS(=O)(=O)Cn1nnnc1-c1cc2c(cc1F)S(=O)(=O)C[C@H](N)C(=O)N2Cc1ccc(Oc2ccccc2)cc1 [Example 55, (3R)-3-amino-8-fluoro-7-[1-(methylsulfonyl-methyl)tetrazol-5-yl]-1,1-dioxo-5-[(4-phenoxyphenyl)methyl]-2,3-dihydro-1λ6,5-benzothiazepin-4-one]	85	4.18	6.64	18.3	–	–
CC(C)(c1nnc(-c2ccc3c(c2)N(Cc2ccc(-c4ccc(C(F)(F)F)cc4)cc2)C(=O)[C@@H](N)CS3(=O)=O)o1)S(C)(=O)=O [Example 56, (3R)-3-amino-7-[5-(1-methyl-1-methylsulfonyl-ethyl)-1,3,4-oxadiazol-2-yl]-1,1-dioxo-5-[[4-[4-(trifluoromethyl)phenyl]phenyl]methyl]-2,3-dihydro-1λ6,5-benzothiazepin-4-one]	120	0.741	8.88	10.1	–	–
CC(C)(c1nnc(-c2ccc3c(c2)N(Cc2ccc(-c4ccc(C(F)(F)F)cc4)nc2)C(=O)[C@@H](N)CS3(=O)=O)o1)S(C)(=O)=O [Example 57, (3R)-3-amino-7-[5-(1-methyl-1-methylsulfonyl-ethyl)-1,3,4-oxadiazol-2-yl]-1,1-dioxo-5-[[6-[4-(trifluoromethyl)phenyl]-3-pyridyl]methyl]-2,3-dihydro-1λ6,5-benzothiazepin-4-one]	53	9.14	8.95	27.2	–	–
CC1(c2nnc(-c3ccc4c(c3)N(Cc3ccc(Oc5ccccc5)cc3)C(=O)[C@@H](N)CS4(=O)=O)o2)CCCS1(=O)=O (stereo partly drawn) [Example 58, (3R)-3-amino-7-[5-(2-methyl-1,1-dioxo-thiolan-2-yl)-1,3,4-oxadiazol-2-yl]-1,1-dioxo-5-[(4-phenoxyphenyl)methyl]-2,3-dihydro-1λ6,5-benzothiazepin-4-one]	136	2.93	0.586	3.38	–	–
CC(C)(c1nc(-c2cc3c(cc2F)S(=O)(=O)C[C@H](N)C(=O)N3Cc2ccc(OCc3nc(C(F)(F)F)no3)cc2)no1)S(C)(=O)=O [Example 59, (3R)-3-amino-8-fluoro-7-[5-(1-methyl-1-methylsulfonyl-ethyl)-1,2,4-oxadiazol-3-yl]-1,1-dioxo-5-[[4-[[3-(trifluoromethyl)-1,2,4-oxadiazol-5-yl]methoxy]phenyl]methyl]-2,3-dihydro-1λ6,5-benzothiazepin-4-one]	135	4.27	0.31	1.85	–	–
CC(C)(c1nnc(-c2ccc3c(c2)N(Cc2ccc(Oc4cccc(Br)c4)cc2)C(=O)[C@@H](N)CS3(=O)=O)o1)S(C)(=O)=O [Example 60, (3R)-3-amino-5-[[4-(3-bromophenoxy)phenyl]methyl]-7-[5-(1-methyl-1-methylsulfonyl-ethyl)-1,3,4-oxadiazol-2-yl]-1,1-dioxo-2,3-dihydro-1λ6,5-benzothiazepin-4-one]	106	1.18	0.609	3.8	–	–
CC(C)(c1nnc(-c2ccc3c(c2)N(Cc2ccc(Oc4ccccc4)cc2)C(=O)[C@@H](N)CS3(=O)=O)o1)S(=O)(=O)C1CC1 [Example 61, (3R)-3-amino-7-[5-(1-cyclopropylsulfonyl-1-methyl-ethyl)-1,3,4-oxadiazol-2-yl]-1,1-dioxo-5-[(4-phenoxyphenyl)methyl]-2,3-dihydro-1λ6,5-benzothiazepin-4-one]	89	4.21	0.768	4.77	–	–
COCC(C)(C)Oc1ccc(CN2C(=O)[C@@H](N)CS(=O)(=O)c3cc(F)c(-c4noc(C(C)(C)S(C)(=O)=O)n4)cc32)cc1 [Example 62, (3R)-3-amino-8-fluoro-5-[[4-(2-methoxy-1,1-dimethyl-ethoxy)phenyl]methyl]-7-[5-(1-methyl-1-methylsulfonyl-ethyl)-1,2,4-oxadiazol-3-yl]-1,1-dioxo-2,3-dihydro-benzothiazepin-4-one]	169	3.35	0.269	1.07	–	–
COc1ccc(-c2ccc(CN3C(=O)[C@@H](N)CS(=O)(=O)c4ccc(-c5noc(C(C)(C)S(C)(=O)=O)n5)cc43)cc2)cc1 [Example 63, (3R)-3-amino-5-[[4-(4-methoxyphenyl)phenyl]methyl]-7-[5-(1-methyl-1-methylsulfonyl-ethyl)-1,2,4-oxadiazol-3-yl]-1,1-dioxo-2,3-dihydro-1λ6,5-benzothiazepin-4-one]	57	0.381	2.33	58.9	–	–
CC(C)(c1nnc(-c2ccc3c(c2)N(Cc2ccc(OC(F)(F)F)cc2)C(=O)[C@@H](N)CS3(=O)=O)o1)S(C)(=O)=O [Example 64, (3R)-3-amino-7-[5-(1-methyl-1-methylsulfonyl-ethyl)-1,3,4-oxadiazol-2-yl]-1,1-dioxo-5-[[4-(trifluoromethoxy)phenyl]methyl]-2,3-dihydro-126,5-benzothiazepin-4-one]	55	2.49	1.92	3.26	–	–
CN(C)S(=O)(=O)C(C)(C)c1nnc(-c2ccc3c(c2)N(Cc2ccc(-c4ccc(C(F)(F)F)cc4)cc2)C(=O)[C@@H](N)CS3(=O)=O)o1 [Example 65, 2-[5-[(3R)-3-amino-1,1,4-trioxo-5-[[4-[4-(trifluoromethyl)phenyl]phenyl]methyl]-2,3-dihydro-1λ6,5-benzothiazepin-7-yl]-1,3,4-oxadiazol-2-yl]-N,N-dimethyl-propane-2-sulfonamide]	85	3.16	8.37	> 62.5	–	–
